Values quoted from earlier work as cited in patent US12343427B1, “Stable intravenous diltiazem hydrochloride formulation and use thereof” (Nivagen Pharmaceuticals, Inc., priority 2024, dated 2025).

Target: CYP2D6 (Homo sapiens, UniProt P10635)
Details: Molden E, et al. Drug Metab Dispos. 30: 1-3 (2002)

Chain of CYP2D6 (P10635 whole entry): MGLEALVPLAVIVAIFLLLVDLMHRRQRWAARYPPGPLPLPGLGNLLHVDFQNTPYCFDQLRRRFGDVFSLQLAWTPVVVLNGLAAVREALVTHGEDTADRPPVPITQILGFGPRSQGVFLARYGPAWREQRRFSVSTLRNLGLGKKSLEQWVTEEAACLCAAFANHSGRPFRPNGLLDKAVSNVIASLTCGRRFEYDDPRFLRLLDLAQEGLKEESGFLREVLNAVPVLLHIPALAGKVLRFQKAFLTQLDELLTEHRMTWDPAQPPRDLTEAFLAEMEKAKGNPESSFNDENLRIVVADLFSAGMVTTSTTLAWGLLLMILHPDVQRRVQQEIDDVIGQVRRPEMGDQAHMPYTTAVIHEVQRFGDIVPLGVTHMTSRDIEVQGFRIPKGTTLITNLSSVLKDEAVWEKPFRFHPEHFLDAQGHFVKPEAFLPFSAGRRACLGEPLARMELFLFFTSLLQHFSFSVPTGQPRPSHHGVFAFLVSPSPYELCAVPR

Q: With `COc1ccc([C@@H]2Sc3ccccc3N(CCN(C)C)C(=O)[C@@H]2O)cc1` [Desacetyl-diltiazem] as the compound, how does the “affinity to CYP2D6 compared with CYP3A4” value read?
A: The value was “severalfold higher affinity to CYP2D6 compared with CYP3A4”.
